From PMC4810081, “Venetoclax (ABT-199) Might Act as a Perpetrator in Pharmacokinetic Drug–Drug Interactions” (Pharmaceutics, 2016) come the findings set out here.

Series [1] can be described thus: Growth inhibition assay in MDCKII-MRP2 cells. In kind it is cell-based. To be noted: dog, MDCKII-MRP2 cells (MRP2 over-expressing). How it is done:
(§1) MDCKII cells. […] Moreover, MDCKII-BCRP cells were used to assess BCRP inhibition by venetoclax. MDCKII over-expressing cell lines were kindly provided by A. H. Schinkel and P. Borst (Amsterdam, The Netherlands). The parental cell line MDCKII (available at ATCC, Manassas, VA, USA) was used as a control. The cells were cultured in Dulbecco’s Modified Eagle’s Medium (DMEM) containing 10% FCS, 2 mM of glutamine, 100 U/mL of penicillin, and 100 µg/mL of streptomycin sulfate. Growth inhibition assays in LS180 cells were conducted to determine suitable maximum concentrations for the induction assay without profound antiproliferative effects. Proliferation was quantified by crystal violet staining of the surviving cells as described previously. […] Growth inhibition assays in MDCKII, and their MRP2 or BCRP over-expressing counterparts ([…], MDCKII-BCRP) and in LLC-PK1 and the corresponding P-gp over-expressing cell line L-MDR1 were conducted to evaluate whether venetoclax sustains its efficacy in MDR cell lines.

Series [2] concerns the target T1, CYP2D6 (Homo sapiens, UniProt P10635).
T1 construct: purchased Becton Dickinson Biosciences (Heidelberg, Germany)
Put plainly: CYP2D6 inhibition, CYP2D6/AMMC High Throughput Inhibitor Screening Kit. Format: in vitro ADME. The conditions noted are these: recombinant CYP, fluorogenic substrate, 0.009–20 µM tested. How it is done: Inhibition studies for CYP2B6, CYP2D6, CYP2C19 and CYP3A4 were performed with the CYP2B6/EFC, CYP2D6/AMMC, the CYP2C19/CEC, and the CYP3A4/BFC High Throughput Inhibitor Screening Kit according to the manufacturer’s instructions. The kits contain the respective recombinant CYP and fluorogenic substrates, which are blocked dyes emitting a fluorescence signal when cleaved by the enzyme. For testing CYP1A2 inhibition, the P450-Glo CYP1A2 Screening System was used according to the manufacturer’s instructions. The kit contains the luminogenic CYP1A2 substrate luciferin-ME, which is converted by CYP1A2 into luciferin-generating light when incubated with the luciferin detection reagent of the kit. Eight concentrations of venetoclax in duplicates (0.009–20 µM) were tested in the fluorescence assays, and eight concentrations in triplicate (0.05–100 µM) were tested for the luminogenic assay. Each experiment was conducted in triplicate.

Series [3] is described as follows: Growth inhibition assay in MDCKII-BCRP cells. The conditions noted are these: dog, MDCKII-BCRP cells (BCRP over-expressing). In kind it is cell-based. Here is the method:
as §1

The test system of series [4] is CYP3A4. Put plainly: Induction assay, CYP3A4 mRNA by real-time RT-PCR in LS180 cells. In kind it is in vitro ADME, human. To be noted: four days, 0.01–10 µM. Here is the method:
LS180 cells. The human colon adenocarcinoma cell line LS180 (available at ATCC, Manassas, VA, USA) is one of the standard models for investigating pregnane X receptor (PXR) and aryl hydrocarbon receptor (AhR) mediated induction and was thus used for induction experiments. Cells were cultured under standard cell culture conditions with DMEM supplemented with 10% FCS, 2 mM of glutamine, 100 U/mL of penicillin, 100 µg/mL of streptomycin sulfate, and 0.1 mM of nonessential amino acids.
For the induction experiments, LS180 cells were seeded in 75 cm^2 culturing flasks and incubated for three days. […]
RNA was isolated using the GenElute™ Mammalian Total RNA Miniprep Kit, and cDNA was synthesized with the RevertAid™ H Minus First Strand cDNA Synthesis Kit according to the manufacturer's instructions. mRNA expression was quantified by real-time RT-PCR with the LightCycler® 480 (Roche Applied Science, Mannheim, Germany) as described previously. […] Data were evaluated via calibrator-normalized relative quantification with efficiency correction using the LightCycler® 480 software version 1.5 (Roche Applied Science, Mannheim, Germany). […] The following target genes were quantified: CYP1A1, CYP1A2, CYP3A4, ABCB1, ABCC2, ABCG2, SLCO1B1 (coding for OATP1B1), UDP-glucuronosyltransferase 1A3 (UGT1A3), and UGT1A9.
(In general: Quantitative PCR measures a nucleic acid by following its amplification.)

Series [5] can be described thus: Growth inhibition assay in L-MDR1 cells. Format: cell-based, porcine. To be noted: pig, L-MDR1 cells (LLC-PK1 over-expressing human ABCB1/P-gp). How it is done:
LLC-PK1 and L-MDR1 cells. […] L-MDR1 cells were kindly provided by A. H. Schinkel (The Netherlands Cancer Institute, Division of Experimental Therapy, Amsterdam, The Netherlands). The cells were cultured under standard cell culture conditions with medium M199 supplemented with 10% FCS, 2 mM of glutamine, 100 U/mL of penicillin, and 100 µg/mL of streptomycin sulfate. To maintain P-gp/ABCB1 expression the culture medium for L-MDR1 was supplemented with 0.64 µM of vincristine. One day before seeding the cells for the growth inhibition assay, both cell lines were fed with a vincristine-free culture medium. Growth inhibition assays in LS180 cells were conducted to determine suitable maximum concentrations for the induction assay without profound antiproliferative effects. Proliferation was quantified by crystal violet staining of the surviving cells as described previously. […] Growth inhibition assays in MDCKII, and their MRP2 or BCRP over-expressing counterparts ([…], MDCKII-BCRP) and in LLC-PK1 and the corresponding P-gp over-expressing cell line L-MDR1 were conducted to evaluate whether venetoclax sustains its efficacy in MDR cell lines.

Series [6] has as its target T2, BCRP (Homo sapiens, UniProt Q9UNQ0).
T2 construct: expressed in transfected cells; host or cells: MDCKII-BCRP (gift of A. H. Schinkel and P. Borst)
Put plainly: BCRP inhibition, flow cytometric pheophorbide A assay in MDCKII-BCRP cells. In kind it is in vitro ADME. The source says: MDCKII cells. The transporter over-expressing cell lines MDCKII-MDR1 [5], MDCKII-MRP2 [6], and MDCKII-BCRP [7] and the corresponding parental cell line MDCKII were used to assess the sensitivity of cells with and without P-gp, multidrug resistance-associated protein 2 (MRP2/ABCC2), or BCRP expression. Moreover, MDCKII-BCRP cells were used to assess BCRP inhibition by venetoclax. MDCKII over-expressing cell lines were kindly provided by A. H. Schinkel and P. Borst (Amsterdam, The Netherlands). The parental cell line MDCKII (available at ATCC, Manassas, VA, USA) was used as a control. The cells were cultured in Dulbecco’s Modified Eagle’s Medium (DMEM) containing 10% FCS, 2 mM of glutamine, 100 U/mL of penicillin, and 100 µg/mL of streptomycin sulfate.
Flow cytometric BCRP inhibition assays were conducted in control (MDCKII) and BCRP over-expressing cells (MDCKII-BCRP) using PhA as a fluorescent BCRP substrate as described and validated previously. Inhibition of BCRP leads to an increase in intracellular PhA concentrations. Each experiment was performed in triplicate. Venetoclax was tested from 0.1 up to 100 µM.
For orientation: Flow cytometry measures light scatter and fluorescence of single cells or particles in a stream.

T2 sequence (Q9UNQ0 whole entry): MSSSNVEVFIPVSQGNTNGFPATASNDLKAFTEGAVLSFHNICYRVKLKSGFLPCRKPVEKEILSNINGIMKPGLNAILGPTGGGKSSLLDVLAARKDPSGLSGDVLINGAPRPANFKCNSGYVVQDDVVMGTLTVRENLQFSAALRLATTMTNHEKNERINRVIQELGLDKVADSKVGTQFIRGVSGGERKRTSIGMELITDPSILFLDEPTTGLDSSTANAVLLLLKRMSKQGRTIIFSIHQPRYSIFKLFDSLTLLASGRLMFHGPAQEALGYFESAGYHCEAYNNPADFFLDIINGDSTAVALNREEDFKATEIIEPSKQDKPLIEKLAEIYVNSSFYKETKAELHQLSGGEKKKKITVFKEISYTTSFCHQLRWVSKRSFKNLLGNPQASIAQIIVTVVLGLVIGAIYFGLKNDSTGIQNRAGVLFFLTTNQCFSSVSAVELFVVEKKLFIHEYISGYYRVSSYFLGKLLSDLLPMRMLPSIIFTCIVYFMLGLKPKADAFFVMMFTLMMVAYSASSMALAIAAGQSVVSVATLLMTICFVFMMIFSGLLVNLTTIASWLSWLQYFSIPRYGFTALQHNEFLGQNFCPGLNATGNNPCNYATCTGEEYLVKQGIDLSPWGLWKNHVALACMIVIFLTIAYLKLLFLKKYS
T1 sequence (P10635 whole entry): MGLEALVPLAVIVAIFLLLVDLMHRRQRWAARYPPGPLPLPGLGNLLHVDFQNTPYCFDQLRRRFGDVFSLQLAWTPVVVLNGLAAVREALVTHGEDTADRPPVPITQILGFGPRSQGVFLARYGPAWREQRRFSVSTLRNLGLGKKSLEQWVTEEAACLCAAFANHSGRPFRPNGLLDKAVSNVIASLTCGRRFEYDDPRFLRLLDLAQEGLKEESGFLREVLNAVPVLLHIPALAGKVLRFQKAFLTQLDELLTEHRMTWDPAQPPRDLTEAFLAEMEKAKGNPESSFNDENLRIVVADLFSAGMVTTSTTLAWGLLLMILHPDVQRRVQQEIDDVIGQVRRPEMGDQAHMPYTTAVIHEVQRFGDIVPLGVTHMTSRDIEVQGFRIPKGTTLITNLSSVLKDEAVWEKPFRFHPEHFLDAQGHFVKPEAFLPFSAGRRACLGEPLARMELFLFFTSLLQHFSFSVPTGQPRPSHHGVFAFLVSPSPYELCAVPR

One may read the IC50 as the concentration needed to halve the response being measured. Consider `CC1(C)CCC(CN2CCN(c3ccc(C(=O)NS(=O)(=O)c4ccc(NCC5CCOCC5)c([N+](=O)[O-])c4)c(Oc4cnc5[nH]ccc5c4)c3)CC2)=C(c2ccc(Cl)cc2)C1` [Venetoclax], for which the IC50 in series [1] came to 17.2 ± 1.8 µM; in series [3], 15.7 ± 0.4 µM; in series [5] (with LY335979 (P-gp inhibitor), L-MDR1 + LY335979 (1 µM)) it was 25.7 ± 4.1 µM; in series [5] (L-MDR1, P-gp over-expressing), 53.1 ± 4.1 µM; in series [6], 19.6 ± 7.3 µM. In addition, the “IC50 CYP2D6 inhibition” value in series [2] is reported as “no inhibition”. Besides, the “mRNA expression of CYP3A4” value in series [4] is “unchanged”.
